Like-named read-outs stand apart in the source and are kept apart here. Starred links: 1 amine or outer side, 2 acyl side, 3 side chain; linkers in the order of their positions; H or OH if unused. Non-standard residues stand in square brackets, D forms with d. Residues, ends and D or L forms follow the SMILES beside them. No end group written: not given here. *: point of attachment. X1 = CC(C)C[C@H](NC(=O)[C@@H](N)CS*)C(=O)N[C@@H](Cc1c[nH]cn1)C(=O)N[C@@H](Cc1ccccc1)C(=O)O; NH(1-Adamantyl) = C1C2CC3CC1CC(N*)(C2)C3; MeOSuc = COC(=O)CCC(=O)*; Octanoyl = CCCCCCCC(=O)*; Cbz = O=C(OCc1ccccc1)*; CO = O=C([*:1])[*:2]; Ahx = NCCCCCC(=O)O; Sar = CNCC(=O)O
Experiments:
[1] = molecular target: T1, human leukocyte elastase (hLE) (Homo sapiens, UniProt P08246); experiment: In-vitro inhibition of hLE (cleavage of MeOSuc-AAPV-NA); type: biochemical
T1 construct: Neutrophils (1.4 billion) were isolated from whole blood obtained from a single healthy laboratory donor; from tissue; host or cells: neutrophils from whole blood of a single healthy donor
T1 sequence (P08246 30-247 limits assumed): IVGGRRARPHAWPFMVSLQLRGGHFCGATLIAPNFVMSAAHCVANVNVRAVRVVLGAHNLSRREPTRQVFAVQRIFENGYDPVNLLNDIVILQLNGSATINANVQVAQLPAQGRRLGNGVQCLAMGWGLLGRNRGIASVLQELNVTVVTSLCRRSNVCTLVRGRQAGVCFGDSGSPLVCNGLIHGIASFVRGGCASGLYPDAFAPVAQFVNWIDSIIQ
Method: (§1) The enzymatic activity was assayed with MeOSuc-AAPV-NA for hLE determination and Suc-AAPF-NA for hCG determination (both in 100 mM Hepes buffer, pH 7.4, containing 0.05% of the […] detergent Brij-35). The activities of the individual enzymatic fractions were 100% free from cross-contamination. […] The fractions containing hLE and hCG were dialyzed each against 0.1% pyridinium acetate, pH 5.3, divided into 20 aliquots, lyophilized, and stored at −20° C. until use.
Peptides were dissolved in 100 mM Hepes buffer pH 7.4 containing 0.1% Brij-35 with 10% DMSO to yield 600 μM solutions, which were used to make further dilutions with the same buffer, and 80 μL aliquots were added in duplicates to 96-well plates. The substrate, 600 or 900 μM MeOSuc-AAPV-NA in the same buffer with 5% DMSO, was added to each well in addition to the blank wells, and the plate was placed in the plate reader equilibrated to 37° C. (Dynateck MR-6000). Lyophilized aliquots of hLE were dissolved in 1600 μL of 100 mM Hepes buffer without DMSO, and 80 μL of the enzyme solution was added to the peptides and substrate to initiate the reaction. […] The final volume was 240 μL containing: 5% DMSO, 1-200 μM of peptide, 200 μM substrate, and 0.75 μg (about 25 picomol) enzyme.
For hLE, V is determined by fitting a linear equation to the first 6 time-points (10 min) of the kinetics data using the least squares method. […] From calculating the error in the slope of the equation, the relative error for Ki was deduced:
Ki={slope*(1+[S]/Km)}^−1 because Ki=[I]*{(1+[S]/Km)*(Vo/Vi−1)}^−1.
The hLE inhibitory capability of CRP-derived peptides was evaluated by inhibiting the enzymatic cleavage of MeOSuc-AAPV-NA as described in Materials and Methods (section v).

[2] = molecular target: T2, human leukocyte cathepsin G (hCG) (Homo sapiens, UniProt P08311); experiment: In-vitro inhibition of hCG (conversion of Suc-AAPF-NA); type: biochemical
T2 construct: Neutrophils (1.4 billion) were isolated from whole blood obtained from a single healthy laboratory donor; from tissue; host or cells: neutrophils from whole blood of a single healthy donor
T2 sequence (P08311 21-244 limits assumed): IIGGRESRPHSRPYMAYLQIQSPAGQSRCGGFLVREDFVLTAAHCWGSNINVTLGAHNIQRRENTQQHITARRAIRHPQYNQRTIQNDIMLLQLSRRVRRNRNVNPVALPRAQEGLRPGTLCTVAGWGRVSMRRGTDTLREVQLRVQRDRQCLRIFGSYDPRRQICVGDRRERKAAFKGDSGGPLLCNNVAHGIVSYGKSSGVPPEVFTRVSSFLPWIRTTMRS
Method: as §1
Similar conditions to hLE inhibition experiments ere used except the substrate: 80 μL of 1.8 mM Suc-AAPF-NA. The enzyme was issolved in 800 μL buffer, and the reaction was monitored every 6 min for 1 hour. The final volume was 240 μL containing: 5% DMSO, 1-500 μM peptide, 600 μM substrate, and 1.2 μg enzyme (about 40 picomol).
For hCG, V is determined by fitting a quadratic equation to the total kinetic data (60 min), using the least squares method and calculating V at t=0.
The inhibitory capability of several CRP-derived peptides was evaluated by inhibiting the enzymatic conversion of Suc-AAPF-NA (as described in Materials and Methods (vi) above).

[3] = substrate MeOSuc-AAPV-NA, 100 mM Hepes pH 7.4, 37° C., read-out: hLE Ki

| Compound | Ki [1] | hLE inhibitory capability (in words) [1] | also measured |
| --- | --- | --- | --- |
| SFTVGGSEILFEVPEVTVAPVHICTSWESA [Peptide 3b] | 22 ± 4 µM | – | Ki [2]: 200 ± 30 µM |
| VTVAPV [Peptide 25, Val89-Thr-Val-Ala-Pro-Val94] | – | – | Ki [1, 3]: 900 ± 300 µM |
| VTVAPVFI [Peptide 10, Val89-Thr-Val-Ala-Pro-Val-Phe-Ile96] | – | – | Ki [1, 3]: 110 ± 25 µM; Ki ([2]; substrate Suc-AAPF-NA, 600 μM, read-out: hCG Ki): 1 ± 0.2 µM |
| Ser18-Tyr-Val-Ser-Leu-Lys23 [reference compound] | – | No significant inhibition | – |
| CC[C@H](C)[C@H](NC(=O)[C@H](Cc1c[nH]cn1)NC(=O)[C@@H](NC(=O)[C@@H]1CCCN1C(=O)[C@H](C)NC(=O)[C@@H](NC(=O)[C@@H](NC(=O)[C@@H](NC(=O)NC12CC3CC(CC(C3)C1)C2)C(C)C)[C@@H](C)O)C(C)C)C(C)C)C(=O)O [Peptide 17, Adamantyl-NH-CO-Val89-Thr-Val-Ala-Pro-Val-His-Ile96] ({NH(1-Adamantyl)-CO}-VTVAPVHI-OH) | 130 ± 15 µM | – | – |
| CC[C@H](C)[C@H](NC(=O)[C@H](Cc1c[nH]cn1)NC(=O)[C@@H](NC(=O)[C@@H]1CCCN1C(=O)[C@H](C)NC(=O)[C@@H](NC(=O)[C@@H](NC(=O)[C@@H](NC(=O)OCc1ccccc1)C(C)C)[C@@H](C)O)C(C)C)C(C)C)C(=O)O [Peptide 20, CBz-Val89-Thr-Val-Ala-Pro-Val-His-Ile96] (Cbz-VTVAPVHI-OH) | 165 ± 35 µM | – | – |
| Val-Ala-Pro-Val (VAPV; printed: Val-Ala-Pro-Val) [reference compound] | – | minute | – |
| VAPVHI [Peptide 26, Val91-Ala-Pro-Val-His-Ile96] | – | – | Ki [1, 3]: 1000 ± 250 µM |
| Thr200-Lys-Pro-Gln-Leu-Trp-Pro206 [reference compound] | – | No significant inhibition | – |
| CC[C@H](C)[C@H](NC(=O)[C@@H](Cc1c[nH]cn1)NC(=O)[C@H](NC(=O)[C@H]1CCCN1C(=O)[C@H](C)NC(=O)[C@@H](NC(=O)[C@@H](NC(=O)[C@@H](N)C(C)C)[C@@H](C)O)C(C)C)C(C)C)C(=O)O [Peptide 28, Val89-Thr-Val-Ala-(D)Pro-(D)Val-(D)His-Ile96] (H-VTVA[dP][dV][dH]I-OH; N-terminus and C-terminus assumed) | 2300 ± 300 µM | – | – |
| Asp70-Ile-Gly-Tyr-Ser74 [reference compound] | – | No significant inhibition | – |
| CCCCCCCC(=O)N[C@H](C(=O)N[C@H](C(=O)N[C@H](C(=O)N[C@@H](C)C(=O)N1CCC[C@H]1C(=O)N[C@H](C(=O)N[C@@H](Cc1c[nH]cn1)C(=O)N[C@H](C(=O)O)[C@@H](C)CC)C(C)C)C(C)C)[C@@H](C)O)C(C)C [Peptide 19, Octanoyl-Val89-Thr-Val-Ala-Pro-Val-His-Ile96] (Octanoyl-VTVAPVHI-OH) | 280 ± 25 µM | – | – |
| Phe84-Glu-Val-Pro-Glu-Val-Thr90 [reference compound] | – | No significant inhibition | – |
| VTVAPVHIPP-NH2 [Peptide 14, Val89-Thr-Val-Ala-Pro-Val-His-Ile96-Pro-Pro-NH2] | 85 ± 10 µM | – | – |
| VTVAPVHIP-NH2 [Peptide 12, Val89-Thr-Val-Ala-Pro-Val-His-Ile96-Pro-NH2] | 70 ± 5 µM | – | – |
| Thr76-Val-Gly-Gly-Ser80 [reference compound] | – | No significant inhibition | – |
| CC[C@H](C)[C@H](NC(=O)[C@H](Cc1c[nH]cn1)NC(=O)[C@@H](NC(=O)[C@@H]1CCCN1C(=O)[C@H](C)NC(=O)[C@@H](NC(=O)[C@@H](NC(=O)[C@@H](NC(=O)[C@H](CCC(=O)O)NC(=O)[C@@H]1CCCN1C(=O)[C@@H](NC(=O)[C@H](CCC(=O)O)NC(=O)[C@H](Cc1ccccc1)NC(=O)[C@H](CC(C)C)NC(=O)[C@@H](NC(=O)[C@H](CCC(=O)O)NC(=O)[C@H](CO)NC(=O)CN)[C@@H](C)CC)C(C)C)C(C)C)[C@@H](C)O)C(C)C)C(C)C)C(=O)N[C@@H](CSSC[C@H](N)C(=O)N[C@@H](CC(C)C)C(=O)N[C@@H](Cc1c[nH]cn1)C(=O)N[C@@H](Cc1ccccc1)C(=O)O)C(=O)O [Peptide 5, Gly79-Ser-Glu-Ile-Leu-Phe-Glu-Val-Pro-Glu-Val-Thr-Val-Ala-Pro-Val-His-Ile-Cys97-Cys36-His-Leu-Phe39] (H-GSEILFEVPEVTVAPVHIC(X1)-OH) | – | – | hCG inhibitory capability (in words) [2]: completely inactive |
| VTVAPVSI [Peptide 9, Val89-Thr-Val-Ala-Pro-Val-Ser-Ile96] | – | – | Ki [1, 3]: 200 ± 20 µM |
| Asp112-Gly-Lys-Pro-Arg-Val-Arg-Lys119 [reference compound] | – | No significant inhibition | – |
| CC[C@H](C)[C@H](NC(=O)[C@H](Cc1c[nH]cn1)NC(=O)[C@@H](NC(=O)[C@H]1CCCN1C(=O)[C@H](C)NC(=O)[C@@H](NC(=O)[C@@H](NC(=O)[C@@H](N)C(C)C)[C@@H](C)O)C(C)C)C(C)C)C(=O)O [Peptide 27, Val89-Thr-Val-Ala-(D)Pro-Val-His-Ile96] (H-VTVA[dP]VHI-OH; N-terminus and C-terminus assumed) | 560 ± 170 µM | – | – |
| CC[C@H](C)[C@H](NC(=O)[C@H](Cc1c[nH]cn1)NC(=O)[C@@H](NC(=O)[C@@H]1CCCN1C(=O)[C@H](C)NC(=O)[C@@H](NC(=O)[C@@H](NC(=O)[C@@H](NC(=O)CCC(=O)OC)C(C)C)[C@@H](C)O)C(C)C)C(C)C)C(=O)O [Peptide 15, MeOSuc-Val89-Thr-Val-Ala-Pro-Val-His-Ile96] (MeOSuc-VTVAPVHI-OH) | 160 ± 30 µM | – | – |
| CC[C@H](C)[C@H](NC(=O)[C@H](Cc1c[nH]cn1)NC(=O)[C@@H](NC(=O)[C@@H]1CCCN1C(=O)[C@H](C)NC(=O)[C@@H](NC(=O)[C@@H](NC(=O)[C@@H](NC(=O)CCCCCNC(C)=O)C(C)C)[C@@H](C)O)C(C)C)C(C)C)C(=O)O [Peptide 22, Acetyl-aminocaproyl-Val89-Thr-Val-Ala-Pro-Val-His-Ile96] (Ac-[Ahx]VTVAPVHI-OH) | 210 ± 30 µM | – | – |
| Val153-Gly-Asp-Ile-Gly-Asn-Val159 [reference compound] | – | No significant inhibition | – |
| Gln203-Leu-Trp-Pro206 [reference compound] | – | No significant inhibition | – |
| CC[C@H](C)[C@H](NC(=O)[C@H](Cc1c[nH]cn1)NC(=O)[C@@H](NC(=O)[C@@H]1CCCN1C(=O)[C@H](C)NC(=O)[C@@H](NC(=O)[C@@H](NC(=O)[C@@H](N)C(C)C)[C@@H](C)O)C(C)C)C(C)C)C(=O)N[C@@H](CSSC[C@H](N)C(=O)N[C@@H](CC(C)C)C(=O)N[C@@H](Cc1c[nH]cn1)C(=O)N[C@@H](Cc1ccccc1)C(=O)O)C(=O)O [Peptide 4, Val89-Thr-Val-Ala-Pro-Val-His-Ile-Cys97-Cys36-His-Leu-Phe39] (H-VTVAPVHIC(X1)-OH) | – | – | hCG inhibitory capability (in words) [2]: completely inactive |
| LEAIPMSI [Peptide 24, Leu-Glu-Ala-Ile-Pro-Met-Ser-Ile, reference compound] | – | – | Ki [1, 3]: 350 ± 70 µM |
| Asn160-Met-Trp-Asp-Phe-Val165 [reference compound] | – | No significant inhibition | – |
| CC[C@H](C)[C@H](NC(=O)[C@H](Cc1c[nH]cn1)NC(=O)[C@@H](NC(=O)CN(C)C(=O)[C@H](C)NC(=O)[C@@H](NC(=O)[C@@H](NC(=O)[C@@H](N)C(C)C)[C@@H](C)O)C(C)C)C(C)C)C(=O)O [Peptide 30, Val89-Thr-Val-Ala-Sarcosine-Val-His-Ile96] (H-VTVA[Sar]VHI-OH; N-terminus and C-terminus assumed) | – | almost completely lost | Ki [1, 3]: 1400 ± 500 µM |

Reference: US20020119917A1, “ANTI-INFLAMMATORY PEPTIDES DERIVED FROM C-REACTIVE PROTEIN” (priority 1996, published 2002)
